This note sets out measurements from patent US8497289B2, “3.1.0 bicyclic GlyT1 inhibitors and methods of making and using same” (Vanderbilt University, priority 2008, dated 2013).

This test concerns the target T1, GlyT1 (Homo sapiens, UniProt P48067).
T1 construct: Human placental choriocarcinoma cells endogenously expressing GlyT1; host or cells: JAR cells (human placental choriocarcinoma)
T1 sequence (P48067 1-706): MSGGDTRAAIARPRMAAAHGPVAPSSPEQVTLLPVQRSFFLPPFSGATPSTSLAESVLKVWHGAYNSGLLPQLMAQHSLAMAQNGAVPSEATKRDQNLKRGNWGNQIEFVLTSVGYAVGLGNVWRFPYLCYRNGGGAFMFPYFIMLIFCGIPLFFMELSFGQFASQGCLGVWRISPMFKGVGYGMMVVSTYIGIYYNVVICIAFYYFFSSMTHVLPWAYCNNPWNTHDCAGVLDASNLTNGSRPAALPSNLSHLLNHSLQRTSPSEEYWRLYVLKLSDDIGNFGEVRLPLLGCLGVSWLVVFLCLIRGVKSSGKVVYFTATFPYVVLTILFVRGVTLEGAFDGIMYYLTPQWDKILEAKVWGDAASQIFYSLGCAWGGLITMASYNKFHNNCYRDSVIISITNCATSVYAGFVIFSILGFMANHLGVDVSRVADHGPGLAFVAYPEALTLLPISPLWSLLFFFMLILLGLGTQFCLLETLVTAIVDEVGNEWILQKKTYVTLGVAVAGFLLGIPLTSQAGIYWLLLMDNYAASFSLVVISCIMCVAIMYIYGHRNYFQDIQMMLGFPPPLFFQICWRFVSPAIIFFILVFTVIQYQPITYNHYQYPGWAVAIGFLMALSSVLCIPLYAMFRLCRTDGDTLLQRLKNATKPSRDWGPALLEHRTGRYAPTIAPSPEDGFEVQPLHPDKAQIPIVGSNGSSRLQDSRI
The test is described as follows: [14C]-glycine uptake in JAR cells (scintillation proximity, Cytostar T plates). It is filed as cell-based. Conditions: read-out: Potency. The procedure:
Human placental choriocarcinoma cells endogenously expressing GlyT1 can be cultured using standard conditions. Cells can then be grown at 37° C. in a humidified atmosphere 40-48 hours before the assay. Culture medium can be removed from the culture plate, and cells can be incubated with an amount of TB1A buffer with or without the compounds of the present invention for a sufficient period of time. Then an amount of [^14C]-glycine diluted with TB1A can be added to each well. After incubation the microplates can be sealed and counted. Non-specific uptake of [^14C]-glycine can be determined in the presence of unlabeled glycine. To determine potencies, a range of concentrations of the compounds of the present invention can be added to the cells, followed by the fixed concentration of [^14C]-glycine. The concentration of the present compound that inhibited half of the specific uptake of [^14C]glycine (IC50 value) can be determined from the assay data by non-linear curve fitting.
The procedure used was analogous to that disclosed in Williams, J. B.; Mallorga P. J.; Lemaire W.; Williams D. L.; Na S.; Patel S.; Conn J. P.; Pettibone D. J.; Austin C.; Sur C.; “Development of a scintillation proximity assay for analysis of Na+/Cl−-dependent neurotransmitter transporter activity,” ANAL. BIOCHEM.
Cells were plated at a density of 1.3×10^4 cells/well and grown at 37° C. in a humidified atmosphere of 5% CO2 for 40-48 h. Culture medium was removed from the Cytostar T plate and JAR cells were incubated with 30 μl of TB1A buffer (120 mM NaCl, 2 mM KCl, 1 mM CaCl2, 1 mM MgCl2, 10 mM Hepes, 5 mM L-alanine, pH 7.5 adjusted with 1 M Tris base) with or without multiple concentrations of test compound (added at 2× final concentration) for 1 min. Then 30 μl of [^14C]-glycine (Perkin-Elmer) diluted in TB1A was added to each well to give a final concentration of 10 μM. Cytostar T plates were then incubated in the dark at room temperature for 3 h, sealed with opaque white bottom plate seals (Perkin-Elmer) and clear top plate seals (Topseal A, Perkin-Elmer), and were counted on a Top Count (Packard). Glycine uptake was determined by measuring radioactivity in each well and plotted as a function of concentration of test compound. […] Nonspecific uptake of [^14C]-glycine was determined in the presence of 10 mM cold glycine. [^14C]-taurine (American Radiolabeled Chemicals, Inc.) uptake experiments were performed according to the same protocol except that 10 mM cold taurine was used to determine nonspecific uptake. […] COS-7 cells were transiently transfected with the human GlyT2 cDNA (Origene Technologies Inc., SC303452) using Fugene 6 (Roche) according to the manufacturer's instructions in Dulbecco's modified Eagle's medium (DMEM, Invitrogen) containing 10% Fetal Bovine Serum, 10 mM HEPES, 1 mM sodium pyruvate, penicillin (100 μg/ml), and streptomycin (100 μg/ml). The following day, the cells were plated at a density of 5×10^5 cells/well in Cytostar T plates and maintained at 37° C. in a humidified atmosphere of 5% CO2 for 24 h. GlyT2 glycine uptake experiments were performed according to the same protocol previously described.

For the compound `Cn1cnc(S(=O)(=O)N2CC3C(C2)C3(CNC(=O)c2ccc(Cl)cc2Cl)CC2CC2)c1` (stereo not drawn) [Compound 6a, 2,4-dichloro-N-((6-(cyclopropylmethyl)-3-(1-methyl-1H-imidazol-4-ylsulfonyl)-3-azabicyclo[3.1.0]hexan-6-yl)methyl)benzamide], the IC50 turned out to be 4.1 nM.

For `Cn1cnc(S(=O)(=O)N2CC3C(C2)C3(CNC(=O)c2ccccc2Cl)CC2CC2)c1` (stereo not drawn) [Compound 6b], the IC50 came to 18.6 nM. For `Cn1cnc(S(=O)(=O)N2CC3C(C2)C3(CNC(=O)c2ccc(Cl)cc2)CC2CC2)c1` (stereo not drawn) [Compound 6c], the IC50 is 32 nM. For the compound `Cn1cnc(S(=O)(=O)N2CC3C(C2)C3(CNC(=O)c2ccc(Cl)c(Cl)c2)CC2CC2)c1` (stereo not drawn) [Compound 6d], the IC50 was 82 nM. In the case of `Cn1cnc(S(=O)(=O)N2CC3C(C2)C3(CNC(=O)c2c(F)cccc2F)CC2CC2)c1` (stereo not drawn) [Compound 6e] it was 4 nM; in that of `Cn1cnc(S(=O)(=O)N2CC3C(C2)C3(CNC(=O)c2ccccc2C(F)(F)F)CC2CC2)c1` (stereo not drawn) [Compound 6f], 5 nM. With `Cn1cnc(S(=O)(=O)N2CC3C(C2)C3(CNC(=O)c2cccc(C(F)(F)F)c2)CC2CC2)c1` (stereo not drawn) [Compound 6g], the IC50 was 64 nM. Regarding `Cn1cnc(S(=O)(=O)N2CC3C(C2)C3(CNC(=O)c2ccc(F)cc2F)CC2CC2)c1` (stereo not drawn) [Compound 6h], the IC50 is 44 nM. With `Cn1cnc(S(=O)(=O)N2CC3C(C2)C3(CNC(=O)c2cc(Cl)cc(Cl)c2)CC2CC2)c1` (stereo not drawn) [Compound 6i], the IC50 was determined as 100 nM. `Cn1cnc(S(=O)(=O)N2CC3C(C2)C3(CNC(=O)c2cccc(Cl)c2)CC2CC2)c1` (stereo not drawn) [Compound 6j]: the IC50 is 119 nM. Take `CCS(=O)(=O)N1CC2C(C1)C2(CNC(=O)c1ccc(Cl)cc1Cl)CC1CC1` (stereo not drawn) [Compound 8a]: the IC50 is 1300 nM.

With `CCCS(=O)(=O)N1CC2C(C1)C2(CNC(=O)c1ccc(Cl)cc1Cl)CC1CC1` (stereo not drawn) [Compound 8b], the IC50 is 361 nM. Regarding `CC(C)S(=O)(=O)N1CC2C(C1)C2(CNC(=O)c1ccc(Cl)cc1Cl)CC1CC1` (stereo not drawn) [Compound 8c], the IC50 turned out to be 3400 nM. Take `O=C(NCC1(CC2CC2)C2CN(S(=O)(=O)CC3CC3)CC21)c1ccc(Cl)cc1Cl` (stereo not drawn) [Compound 8d, 2,4-Dichloro-N-((6-(cyclopropylmethyl)-3-(cyclopropylmethylsulfonyl)-3-azabicyclo[3.1.0]hexan-6-yl)methyl)benzamide]: the IC50 stood at 231 nM.

As for `CCCS(=O)(=O)N1CC2C(C1)C2(CNC(=O)c1ccccc1F)CC1CC1` (stereo not drawn) [Compound 9a], the IC50 amounted to 2100 nM. With `CCCS(=O)(=O)N1CC2C(C1)C2(CNC(=O)c1ccccc1Cl)CC1CC1` (stereo not drawn) [Compound 9b], the IC50 was 1200 nM.

For `CCCS(=O)(=O)N1CC2C(C1)C2(CNC(=O)c1ccc(Cl)cc1)CC1CC1` (stereo not drawn) [Compound 9c], the IC50 is 1850 nM. Take `CCCS(=O)(=O)N1CC2C(C1)C2(CNC(=O)c1cccc(C(F)(F)F)c1)CC1CC1` (stereo not drawn) [Compound 9d]: the IC50 is 4500 nM. Then `CCCS(=O)(=O)N1CC2C(C1)C2(CNC(=O)c1ccc(C(F)(F)F)cc1)CC1CC1` (stereo not drawn) [Compound 9e], with 1100 nM. Turning to `CCCS(=O)(=O)N1CC2C(C1)C2(CNC(=O)c1ccc(F)cc1Cl)CC1CC1` (stereo not drawn) [Compound 9f], the IC50 was found to be 507 nM. Then `O=C(NCC1(CC2CC2)C2CN(S(=O)(=O)CC3CC3)CC21)c1ccccc1C(F)(F)F` (stereo not drawn) [Compound 9g], with 688 nM.

With `O=C(NCC1(CC2CC2)C2CN(S(=O)(=O)CC3CC3)CC21)c1ccc(C(F)(F)F)cc1` (stereo not drawn) [Compound 9h], the IC50 turned out to be 629 nM. Take `O=C(NCC1(CC2CC2)C2CN(S(=O)(=O)CC3CC3)CC21)c1ccc(F)cc1F` (stereo not drawn) [Compound 9i]: the IC50 is 1020 nM. On to `O=C(NCC1(CC2CC2)C2CN(S(=O)(=O)CC3CC3)CC21)c1c(F)cccc1F` (stereo not drawn) [Compound 9j], for which the IC50 is 1020 nM. Take `CS(=O)(=O)N1CC2C(C1)C2(CNC(=O)c1ccc(Cl)cc1Cl)c1ccccn1` (stereo not drawn) [Compound 12a]: the IC50 is greater than 20000 nM. Turning to `CCS(=O)(=O)N1CC2C(C1)C2(CNC(=O)c1ccc(Cl)cc1Cl)c1ccccn1` (stereo not drawn) [Compound 12b], the IC50 was greater than 20000 nM. In the case of `CCCS(=O)(=O)N1CC2C(C1)C2(CNC(=O)c1ccc(Cl)cc1Cl)c1ccccn1` (stereo not drawn) [Compound 12c], the IC50 was greater than 20000 nM. Consider `Cn1cnc(S(=O)(=O)N2CC3C(C2)C3(CNC(=O)c2ccc(Cl)cc2Cl)c2ccccn2)c1` (stereo not drawn) [Compound 12d, 2,4-dichloro-N-((3-(1-methyl-1H-imidazol-4-ylsulfonyl)-6-(pyridine-2-yl)-3-azabicyclo[3.1.0]hexan-6-yl)methyl)benzamide], for which the IC50 amounted to 240 nM. Consider `Cn1cc(S(=O)(=O)N2CC3C(C2)C3(CNC(=O)c2ccc(Cl)cc2Cl)c2ccccn2)cn1` (stereo not drawn) [Compound 12e], for which the IC50 was greater than 20000 nM. For `O=C(NCC1(c2ccccn2)C2CN(S(=O)(=O)c3ccccc3)CC21)c1ccc(Cl)cc1Cl` (stereo not drawn) [Compound 12f], the IC50 is greater than 20000 nM. Take `O=C(NCC1(c2ccccn2)C2CN(S(=O)(=O)c3ccccn3)CC21)c1ccc(Cl)cc1Cl` (stereo not drawn) [Compound 12g]: the IC50 is greater than 20000 nM. With `Cn1cnc(S(=O)(=O)N2CC3C(C2)C3(CNC(=O)c2ccccc2Cl)c2ccccn2)c1` (stereo not drawn) [Compound 13a], the IC50 is 457 nM.

With `Cn1cnc(S(=O)(=O)N2CC3C(C2)C3(CNC(=O)c2ccccc2C(F)(F)F)c2ccccn2)c1` (stereo not drawn) [Compound 13b, 2-Trifluoromethyl-N-((6-(pyridin-2-yl)-3-(1-methyl-1H-imidazol-4-ylsulfonyl)-3-azabicyclo[3.1.0]hexan-6-yl)methyl)benzamide], the IC50 turned out to be 190 nM.
